Among the data in PubChem BioAssay AID248 (DTP/NCI, 2004) are T/C values, retold here.

“And” between values parts separate entries of the source, which are not always exact repeats. Identical values can stand only once. Toxic doses and inconclusive results are not listed.

In the test the test system is L1210 leukemia ip in BDF1 mice, survival T/C. Description: NCI In Vivo Anticancer Drug Screen. Data for tumor model L1210 Leukemia (intraperitoneal) in B6D2F1 (BDF1) mice. As to conditions: endpoint: mean survival time, higher = longer survival. The method in brief: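 Mice bearing the transplanted tumor received compound or vehicle. Survival of the treated group was divided by that of the vehicle-treated control group to give the ratio.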

[1] abbreviates: dose: 100.0 mg/kg/injection, schedule: Q04DX002 (ip), vehicle: saline.
The mark [2] stands for this setting: dose: 100.0 mg/kg/injection, schedule: Q04DX003 (ip), vehicle: saline with Tween-80.
Setting [3] is: dose: 200.0 mg/kg/injection, schedule: Q04DX003 (ip), vehicle: saline with Tween-80.
[4] abbreviates: dose: 50.0 mg/kg/injection, schedule: Q01DX009 (ip), vehicle: saline with Tween-80.
Where [5] appears, read: dose: 100.0 mg/kg/injection, schedule: Q01DX001 (ip), vehicle: saline with Tween-80.
[6] abbreviates: dose: 100.0 mg/kg/injection, schedule: Q01DX009 (ip), vehicle: saline with Tween-80.
Setting [7] is: dose: 200.0 mg/kg/injection, schedule: Q01DX001 (ip), vehicle: saline with Tween-80.
Setting [8] is: dose: 400.0 mg/kg/injection, schedule: Q01DX001 (ip), vehicle: saline with Tween-80.
[9] abbreviates: dose: 100.0 mg/kg/injection, schedule: Q04DX003 (ip), vehicle: Klucel (hydroxypropylcellulose) (HPC).
[10] abbreviates: dose: 200.0 mg/kg/injection, schedule: Q04DX003 (ip), vehicle: Klucel (hydroxypropylcellulose) (HPC).
[11] abbreviates: dose: 400.0 mg/kg/injection, schedule: Q04DX003 (ip), vehicle: Klucel (hydroxypropylcellulose) (HPC).
Where [12] appears, read: dose: 100.0 mg/kg/injection, schedule: Q01DX001 (ip), vehicle: saline.
[13] abbreviates: dose: 200.0 mg/kg/injection, schedule: Q01DX001 (ip), vehicle: saline.
Where [14] appears, read: dose: 400.0 mg/kg/injection, schedule: Q01DX001 (ip), vehicle: saline.
Setting [15] is: dose: 100.0 mg/kg/injection, schedule: Q01DX001 (ip), vehicle: carboxymethylcellulose (CMC).
Setting [16] is: dose: 200.0 mg/kg/injection, schedule: Q01DX001 (ip), vehicle: carboxymethylcellulose (CMC).
[17] abbreviates: dose: 400.0 mg/kg/injection, schedule: Q01DX001 (ip), vehicle: carboxymethylcellulose (CMC).

Regarding `CSC1=[N+](C)CCS1`, the T/C was 106 % of control (dose: 75.0 mg/kg/injection, schedule: Q01DX001 (ip), vehicle: saline); 109 % of control (dose: 75.0 mg/kg/injection, schedule: Q04DX003 (ip), vehicle: saline with Tween-80); 98 % of control (dose: 87.5 mg/kg/injection, schedule: Q01DX009 (ip), vehicle: saline); 107 % of control (dose: 150.0 mg/kg/injection, schedule: Q01DX001 (ip), vehicle: saline); 101 % of control (dose: 150.0 mg/kg/injection, schedule: Q04DX003 (ip), vehicle: saline with Tween-80); 100 % of control (dose: 175.0 mg/kg/injection, schedule: Q01DX009 (ip), vehicle: saline).

Turning to `O=C(NCCCCCCNC(=O)N(Cc1ccccc1)Cc1ccccc1)N(Cc1ccccc1)Cc1ccccc1`, the T/C under setting [1] is 105 % of control; the T/C (dose: 200.0 mg/kg/injection, schedule: Q04DX002 (ip), vehicle: saline) is 97 % of control; the T/C (dose: 400.0 mg/kg/injection, schedule: Q04DX002 (ip), vehicle: saline) was 108 % of control.

Regarding `O=C(O)/C=C\C(=O)Nc1ccccc1C(=O)O`, the T/C was 98 % of control under setting [2]; 97 % of control under setting [3]; 111 % of control (dose: 400.0 mg/kg/injection, schedule: Q04DX003 (ip), vehicle: saline with Tween-80).

Turning to `C[n+]1cccc(C(=O)N/N=C/CCc2ccccc2)c1`, the T/C was 95 % of control (dose: 25.0 mg/kg/injection, schedule: Q04DX003 (ip), vehicle: saline with Tween-80); 101 % of control (dose: 50.0 mg/kg/injection, schedule: Q01DX001 (ip), vehicle: saline with Tween-80); 120 % of control under setting [4]; 90 % of control (dose: 50.0 mg/kg/injection, schedule: Q04DX003 (ip), vehicle: saline with Tween-80); 103 % of control under setting [5]; 106 % of control under setting [6]. In addition, the T/C is, setting by setting: under setting [2], 92 % of control; under setting [7], 97 % of control; (dose: 200.0 mg/kg/injection, schedule: Q01DX009 (ip), vehicle: saline with Tween-80) 95 % of control; under setting [3], 94 % of control; under setting [8], 101 % of control.

In the case of `Cc1cc(C)cc(-n2nnc3ccccc3c2=O)c1`, the T/C (dose: 100.0 mg/kg/injection, schedule: Q01DX009 (ip), vehicle: Klucel (hydroxypropylcellulose) (HPC)) is 102 % of control; the T/C (dose: 100.0 mg/kg/injection, schedule: Q04DX003 (ip), vehicle: saline) was 91 % of control; the T/C (dose: 200.0 mg/kg/injection, schedule: Q01DX009 (ip), vehicle: Klucel (hydroxypropylcellulose) (HPC)) is 98 % of control; the T/C (dose: 200.0 mg/kg/injection, schedule: Q04DX003 (ip), vehicle: saline) was 93 % of control; the T/C (dose: 400.0 mg/kg/injection, schedule: Q01DX009 (ip), vehicle: Klucel (hydroxypropylcellulose) (HPC)) is 101 % of control; the T/C (dose: 400.0 mg/kg/injection, schedule: Q04DX003 (ip), vehicle: saline) is 88 % of control.

As for `O=C1c2ccccc2-c2cccc3ccc(-c4ccccc4)c1c23`, the T/C is 105 % of control (dose: 75.0 mg/kg/injection, schedule: Q01DX009 (ip), vehicle: Klucel (hydroxypropylcellulose) (HPC)); 96 % of control under setting [9]; 97 % of control (dose: 150.0 mg/kg/injection, schedule: Q01DX009 (ip), vehicle: Klucel (hydroxypropylcellulose) (HPC)); 96 % of control under setting [10]; 101 % of control (dose: 300.0 mg/kg/injection, schedule: Q01DX009 (ip), vehicle: Klucel (hydroxypropylcellulose) (HPC)); 100 % of control under setting [11].

On to `CN(C)c1ccc(/C=C/c2cc(N(C)C)nc3ccccc23)cc1`, for which the T/C runs as follows: (dose: 25.0 mg/kg/injection, schedule: Q01DX015 (ip), vehicle: carboxymethylcellulose (CMC)) 109 % of control; (dose: 50.0 mg/kg/injection, schedule: Q01DX015 (ip), vehicle: carboxymethylcellulose (CMC)) 105 % of control; (dose: 75.0 mg/kg/injection, schedule: Q01DX015 (ip), vehicle: carboxymethylcellulose (CMC)) 101 % of control.

As to `NC(=NCc1ccccc1)c1ccc(N=C(N)c2ccc(C(N)=Nc3ccc(C(N)=NCc4ccccc4)cc3)cc2)cc1`, the T/C is, setting by setting: (dose: 5.0 mg/kg/injection, schedule: Q01DX001 (ip), vehicle: water) 95 % of control; (dose: 6.25 mg/kg/injection, schedule: Q01DX009 (ip), vehicle: saline) 119 % of control; (dose: 10.0 mg/kg/injection, schedule: Q01DX001 (ip), vehicle: water) 96 % of control; (dose: 12.5 mg/kg/injection, schedule: Q01DX009 (ip), vehicle: saline) 153 % of control; (dose: 12.5 mg/kg/injection, schedule: Q01DX015 (oral), vehicle: water) 95 % of control; (dose: 15.0 mg/kg/injection, schedule: Q01DX001 (ip), vehicle: water) 98 % of control. The T/C was 249 % of control (dose: 18.0 mg/kg/injection, schedule: Q01DX015 (ip), vehicle: water); 107 % of control (dose: 20.0 mg/kg/injection, schedule: Q01DX001 (ip), vehicle: water); 114 % of control (dose: 25.0 mg/kg/injection, schedule: Q01DX009 (ip), vehicle: saline); 222 % of control and 256 % of control (dose: 25.0 mg/kg/injection, schedule: Q01DX015 (ip), vehicle: water); 91 % of control (dose: 25.0 mg/kg/injection, schedule: Q01DX015 (oral), vehicle: water); 98 % of control (dose: 50.0 mg/kg/injection, schedule: Q01DX015 (oral), vehicle: water). Also, under “dose: 100.0 mg/kg/injection, schedule: Q01DX015 (oral), vehicle: water”, the T/C is 98 % of control.

For `C1CC23CSCC12CSC3` (stereo not given), the T/C under setting [12] is 103 % of control, the T/C under setting [13] is 111 % of control and the T/C under setting [14] was 108 % of control.

Turning to `CC(=O)N(c1ccccc1)c1ccc([N+](=O)[O-])cc1[N+](=O)[O-]`, the T/C is 107 % of control under setting [15]; 94 % of control and 115 % of control (dose: 177.0 mg/kg/injection, schedule: Q01DX001 (ip), vehicle: carboxymethylcellulose (CMC)); 96 % of control under setting [16]; 97 % of control and 103 % of control (dose: 266.0 mg/kg/injection, schedule: Q01DX001 (ip), vehicle: carboxymethylcellulose (CMC)); 97 % of control and 100 % of control under setting [17]; 100 % of control and 105 % of control (dose: 600.0 mg/kg/injection, schedule: Q01DX001 (ip), vehicle: carboxymethylcellulose (CMC)).

Turning to `NC(CC(O)C(=O)O)C(=O)O` (stereo not given), the T/C runs as follows: (dose: 12.5 mg/kg/injection, schedule: Q04DX002 (ip), vehicle: saline) 95 % of control; (dose: 25.0 mg/kg/injection, schedule: Q04DX002 (ip), vehicle: saline) 106 % of control and 96 % of control; (dose: 50.0 mg/kg/injection, schedule: Q04DX002 (ip), vehicle: saline) 106 % of control and 96 % of control; under setting [5], 93 % of control; under setting [1], 101 % of control; under setting [7], 97 % of control. Under setting [8], the T/C is 87 % of control.

On to `Nc1c(Cl)ncnc1Nc1ccccc1C(=O)O`, for which the T/C (dose: 50.0 mg/kg/injection, schedule: Q01DX001 (ip), vehicle: saline) is 102 % of control; the T/C under setting [12] is 93 % of control; the T/C under setting [13] is 98 % of control; the T/C under setting [14] is 98 % of control.

Consider `CCCCCCC1N(Cc2ccccc2OC)CCCN1Cc1ccccc1OC`, for which the T/C is 100 % of control under setting [15], 105 % of control under setting [16] and 94 % of control under setting [17].

For the molecule `CCCn1c(O)c(C(=O)CC)sc1=S`, the T/C under setting [4] was 95 % of control and the T/C under setting [6] was 88 % of control.

Consider `C/C=C(\C)C(=O)O`, for which the T/C (dose: 222.0 mg/kg/injection, schedule: Q01DX Z (ip), vehicle: saline) was 90 % of control.

Take `O=C1CC(c2cccc(S(=O)(=O)F)c2)=NN1c1ccc([N+](=O)[O-])cn1`: the T/C under setting [9] is 102 % of control, the T/C under setting [10] was 105 % of control and the T/C under setting [11] is 91 % of control.
